Measured values as given in PMC5299059 (Cell metabolism, 2017).

How the values were obtained:
[1] = target: T1, BRAF V600R (Homo sapiens, UniProt P15056, V600R); experiment: […]-acetoacetate competition binding
[2] = target: T2, BRAF V600D (Homo sapiens, UniProt P15056, V600D); experiment: […]-acetoacetate competition binding
[3] = target: T3, BRAF V600E (Homo sapiens, UniProt P15056, V600E); experiment: […]-acetoacetate competition binding
[4] = target: T3, BRAF V600E; experiment: […]-labeled acetoacetate radiometric binding to purified bead-bound BRAF
[5] = target: T2, BRAF V600D; experiment: as above
[6] = target: T1, BRAF V600R; experiment: as above

T1 sequence (P15056 whole entry V600R): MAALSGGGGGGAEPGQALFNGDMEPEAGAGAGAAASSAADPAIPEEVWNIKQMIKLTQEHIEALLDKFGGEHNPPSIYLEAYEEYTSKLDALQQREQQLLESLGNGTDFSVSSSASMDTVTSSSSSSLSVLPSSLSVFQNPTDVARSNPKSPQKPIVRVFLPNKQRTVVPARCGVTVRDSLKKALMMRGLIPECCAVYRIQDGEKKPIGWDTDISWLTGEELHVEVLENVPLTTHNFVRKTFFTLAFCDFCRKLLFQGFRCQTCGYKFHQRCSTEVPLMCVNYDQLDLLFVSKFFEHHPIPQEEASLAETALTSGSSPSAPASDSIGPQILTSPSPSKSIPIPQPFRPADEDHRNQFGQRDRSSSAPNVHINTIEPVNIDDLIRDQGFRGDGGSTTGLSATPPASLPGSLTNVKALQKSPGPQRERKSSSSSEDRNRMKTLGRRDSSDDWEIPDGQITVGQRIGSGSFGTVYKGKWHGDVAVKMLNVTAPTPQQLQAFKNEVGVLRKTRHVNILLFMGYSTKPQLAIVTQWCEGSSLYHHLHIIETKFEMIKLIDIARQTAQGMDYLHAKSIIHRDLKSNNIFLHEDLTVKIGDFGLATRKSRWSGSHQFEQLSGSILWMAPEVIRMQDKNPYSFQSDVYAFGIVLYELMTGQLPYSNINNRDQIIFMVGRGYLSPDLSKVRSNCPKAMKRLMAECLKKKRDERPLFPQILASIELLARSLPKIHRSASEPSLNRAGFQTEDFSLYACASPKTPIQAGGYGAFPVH
T3 sequence (P15056 2-766 V600E): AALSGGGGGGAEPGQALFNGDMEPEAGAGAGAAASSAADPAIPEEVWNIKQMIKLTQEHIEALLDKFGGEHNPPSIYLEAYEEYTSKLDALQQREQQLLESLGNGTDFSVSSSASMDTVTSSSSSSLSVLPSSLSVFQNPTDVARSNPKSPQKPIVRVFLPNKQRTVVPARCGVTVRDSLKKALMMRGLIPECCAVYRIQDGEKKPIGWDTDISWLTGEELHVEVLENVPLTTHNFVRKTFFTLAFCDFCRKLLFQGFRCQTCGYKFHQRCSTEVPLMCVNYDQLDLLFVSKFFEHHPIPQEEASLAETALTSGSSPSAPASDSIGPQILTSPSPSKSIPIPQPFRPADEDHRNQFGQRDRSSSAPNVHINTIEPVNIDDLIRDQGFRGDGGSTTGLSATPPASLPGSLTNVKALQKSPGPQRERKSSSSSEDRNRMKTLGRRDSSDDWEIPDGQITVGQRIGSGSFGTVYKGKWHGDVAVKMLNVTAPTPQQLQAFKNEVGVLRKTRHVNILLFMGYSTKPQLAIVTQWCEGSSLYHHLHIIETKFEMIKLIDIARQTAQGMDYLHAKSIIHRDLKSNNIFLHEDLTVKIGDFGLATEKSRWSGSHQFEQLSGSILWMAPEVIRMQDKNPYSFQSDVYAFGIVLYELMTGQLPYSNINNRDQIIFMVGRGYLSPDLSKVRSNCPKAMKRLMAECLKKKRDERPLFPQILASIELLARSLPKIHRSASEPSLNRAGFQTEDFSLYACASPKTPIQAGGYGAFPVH
T2 sequence (P15056 whole entry V600D): as the sequence (P15056 whole entry V600R) above, with R600D counted along it

Structure (SMILES)	Ki [1]	Ki [2]	Ki [3]	Kd [4]	Kd [5]	Kd [6]
CC(=O)C1C(=O)C=C(C)OC1=O (stereo not drawn) [DHAA, dehydroacetic acid]	~91 µM	~88 µM	~88 µM	–	–	–
CC(=O)CC(=O)O [AA, acetoacetate]	–	–	–	~92 µM	~93 µM	~113 µM
